Key:
[1] = tested on: AKT phosphorylation in LP1 and JJN3 cells; test: IGF-1-stimulated AKT phosphorylation, immunoblotting (Figure 3A); type: cell-based; conditions: 100 μM, 2 hrs, IGF-1 15 min
Procedure: To elucidate this specificity, we first evaluated its effects on IGF-1R because IGF-1R as a receptor tyrosine kinase activates PI3K in the presence of IGF-1. To exclude the potential effects of C96 on IGF-1 signaling, LP1 and JJN3 cells were starved overnight followed by C96 or S14161 treatment for 2 hrs, and IGF-1 stimulation for 15 min. As expected, IGF-1 triggered AKT phosphorylation but it was suppressed by both C96 and the proven PI3K inhibitor S14161 without affecting total AKT expression (Figure 3A). […] Next, we evaluated other kinases including non-receptor kinase c-Src and a PI3K parallel kinase ERK which transduces external cellular signals. Both LP1 and JJN3 cells were treated with C96 at increasing concentrations that inhibited AKT and mTOR activation (Figure 2C).
Figure 3 C96 inhibits AKT but not IGF-1R, ERK or c-Src kinase activation (A) LP1 and JJN3 cells were starved overnight, then treated with 100 (μM of C96 or S14161 for 2 hrs, followed by IGF-1 (100 ng/mL) for 15 min. After incubation, cells were harvested and the expression of p-AKT, p-IGF-1R, total AKT (T-AKT), and IGF-1R proteins were detected by immunoblotting. (B) LP1 and JJN3 were treated with C96 at indicated concentrations for 24 hrs followed by immunoblotting assay for the expression of p-Src, c-Src, p-ERK, and ERK. GAPDH was used as a loading control. […]

[2] = tested on: MM cell; set-up: method as in PMID 24013662; conditions: cited from earlier work
[3] = tested on: PI3Kγ and δ; set-up: method as in PMID 20505158; conditions: read-out: IC50s in inhibiting PI3K activity; cited from earlier work
[4] = tested on: MM cell; set-up: method as in PMID 20505158; conditions: cited from earlier work

CCOc1cccc2c1OC(c1ccc(F)cc1)C([N+](=O)[O-])=C2 (stereo not shown) [S14161, reference compound]
AKT phosphorylation triggered by IGF-1 [1]: suppressed

COc1c(OCCCN2CCOCC2)ccc2c1N=C(NC(=O)c1cnc(N)nc1)N1CCN=C21 [BAY80-6946]
concentration required to inhibit MM cell proliferation [2]: more than 1000 nM

CC[C@H](Nc1ncnc2[nH]cnc12)c1nc2cccc(F)c2c(=O)n1-c1ccccc1 [CAL-101]
IC50 [3]: ~2.5 nM
concentration needed to induce MM cell death [4]: more than 10 μM

Reference: publication PMC4116524, “A virtual screen identified C96 as a novel inhibitor of phosphatidylinositol 3-kinase that displays potent preclinical activity against multiple myeloma in vitro and in vivo” (Oncotarget, 2014)
